PubChem BioAssay (NCI)
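Cultured in 96-well plates, cells were exposed to test compound for 48 hours across five concentrations. Here, GI50 denotes the concentration required for 50% inhibition of growth. TGI is the concentration that stops growth completely.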

Experiments:
Assay in all cases: NCI tumour cell line growth inhibition, 48 h
[1] = system: SR leukemia
[2] = system: K-562 leukemia
[3] = system: MOLT-4 leukemia
[4] = system: SK-MEL-28 melanoma
[5] = system: UO-31 renal
[6] = system: NCI-H460 lung
[7] = system: SK-MEL-5 melanoma
[8] = system: HS 578T breast
[9] = system: HT29 colon
[10] = system: COLO 205 colon
[11] = system: NCI-H226 lung
[12] = system: PC-3 prostate
[13] = system: CAKI-1 renal
[14] = system: SF-295 CNS
[15] = system: UACC-62 melanoma
[16] = system: NCI-H522 lung
[17] = system: 786-0 renal
[18] = system: MDA-MB-468 breast
[19] = system: SW-620 colon
[20] = system: SN12C renal
[21] = system: A549 NSCLC
[22] = system: BT-549 breast
[23] = system: CCRF-CEM leukemia
[24] = system: RPMI-8226 leukemia
[25] = system: HCT-15 colon
[26] = system: RXF 393 renal
[27] = system: OVCAR-4 ovarian
[28] = system: SNB-19 CNS
[29] = system: HOP-62 NSCLC
[30] = system: MDA-MB-435

## C=C1CCC2C3(C)COC(c4cccc(F)c4)OC3CCC2(C)C1C/C=C1/C(=O)OCC1O (centres undefined)
[1]
  TGI: 17.7 µM
[2]
  GI50: 3.39 µM
  TGI: 16.1 µM
[3]
  GI50: 3.24 µM
  TGI: 12 µM
[4]
  GI50: 5.58 µM
  TGI: 18 µM
[5]
  GI50: 5.14 µM
  TGI: 18.2 µM
[6]
  GI50: 4.03 µM
  TGI: 18.6 µM
[7]
  GI50: 11 µM
  TGI: 23 µM
[8]
  GI50: 4.62 µM
  TGI: 39.7 µM
[9]
  GI50: 2.19 µM
  TGI: 4.75 µM
[10]
  GI50: 4.09 µM
  TGI: 15.6 µM
[11]
  GI50: 1.85 µM
  TGI: 3.87 µM
[12]
  GI50: 3.3 µM
  TGI: 15.3 µM
[13]
  GI50: 7.43 µM
  TGI: 20.2 µM
[14]
  GI50: 3.87 µM
  TGI: 15.1 µM
[15]
  GI50: 4.68 µM
  TGI: 16.9 µM
[16]
  GI50: 1.71 µM
  TGI: 4 µM
[17]
  GI50: 2.69 µM
  TGI: 7.51 µM
[18]
  GI50: 2.11 µM
  TGI: 6.28 µM
[19]
  GI50: 1.48 µM
  TGI: 3.26 µM
[20]
  GI50: 2.95 µM
  TGI: 9.4 µM
[21]
  GI50: 7.04 µM
  TGI: 22.7 µM
[22]
  GI50: 2.7 µM
  TGI: 7.09 µM
[23]
  GI50: 2.35 µM
  TGI: 7.34 µM
[24]
  GI50: 2.58 µM
  TGI: 6.78 µM
[25]
  GI50: 2.61 µM
  TGI: 8.15 µM
[26]
  GI50: 5.88 µM
  TGI: 19.6 µM
[27]
  GI50: 4.32 µM
  TGI: 18.3 µM
[28]
  GI50: 13.1 µM
  TGI: 25.9 µM
[29]
  GI50: 17.3 µM
  TGI: 31.6 µM
[30]
  GI50: 2.61 µM
  TGI: 9.71 µM
